Measured values published in PubChem BioAssay (NCI).
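Cultured in 96-well plates, cells were exposed to test compound for 48 hours across five concentrations. At the GI50, growth is halved. TGI: total growth inhibition.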

Columns and labels:
Assay in all cases: DTP human tumour cell line panel, 48 h
[1] = test system: NCI-H23 lung
[2] = test system: NCI-H460 lung
[3] = test system: NCI-H522 lung
[4] = test system: NCI/ADR-RES ovarian
[5] = test system: OVCAR-3 ovarian
[6] = test system: OVCAR-4 ovarian
[7] = test system: OVCAR-5 ovarian
[8] = test system: OVCAR-8 ovarian
[9] = test system: PC-3 prostate
[10] = test system: RPMI-8226 leukemia
[11] = test system: RXF 393 renal
[12] = test system: SF-268 CNS
[13] = test system: SF-295 CNS
[14] = test system: SF-539 CNS
[15] = test system: SK-MEL-2 melanoma
[16] = test system: SK-MEL-28 melanoma
[17] = test system: SK-MEL-5 melanoma
[18] = test system: SK-OV-3 ovarian
[19] = test system: SN12C renal
[20] = test system: SNB-19 CNS
[21] = test system: SNB-75 CNS
[22] = test system: SR leukemia
[23] = test system: SW-620 colon
[24] = test system: T-47D breast
[25] = test system: TK-10 renal
[26] = test system: U251 CNS
[27] = test system: UACC-257 melanoma
[28] = test system: UACC-62 melanoma
[29] = test system: UO-31 renal

Compound `CC(C)CSc1nc(Nc2ccccc2)c(C#N)c(-c2ccc(F)cc2)n1` has a GI50 [1] of 6.35 µM, a TGI [1] of 28.7 µM and a GI50 [2] of 0.806 µM. For the same compound, the TGI [2] was 12.1 µM, the GI50 [3] was 14.4 µM and the TGI [3] was 71.4 µM. It also gave a GI50 [4] of 4.87 µM, a TGI [4] of 25.3 µM and a GI50 [5] of 1.11 µM. The TGI [5] was 4.22 µM, the GI50 [6] was 0.335 µM and the TGI [6] was 1.16 µM. The GI50 [7] was 4.03 µM, the TGI [7] was 24 µM and the GI50 [8] was 3.27 µM. The TGI [8] was 16.1 µM, the GI50 [9] was 18.1 µM and the TGI [9] was 81.2 µM. The GI50 [10] was 5.49 µM, the TGI [10] was over 100 µM and the GI50 [11] was 1.75 µM. The TGI [11] was 6.18 µM, the GI50 [12] was 4.41 µM and the TGI [12] was 22.7 µM. The GI50 [13] was 0.971 µM, the TGI [13] was 11.4 µM and the GI50 [14] was 2.5 µM. It also gave a TGI [14] of 13.3 µM, a GI50 [15] of 13.7 µM and a TGI [15] of 30.2 µM. The GI50 [16] was 12.2 µM, the TGI [16] was 35.5 µM and the GI50 [17] was 24.7 µM. The TGI [17] was 82.4 µM, the GI50 [18] was 8.13 µM and the TGI [18] was 32.5 µM. For the same compound, the GI50 [19] was 0.597 µM, the TGI [19] was 3.14 µM and the GI50 [20] was 2.45 µM. For the same compound, the TGI [20] was 13.2 µM, the GI50 [21] was 1.24 µM and the TGI [21] was 5.21 µM. For the same compound, the GI50 [22] was 0.976 µM, the TGI [22] was 14 µM and the GI50 [23] was 8.63 µM. The TGI [23] was over 100 µM, the GI50 [24] was 2.97 µM and the TGI [24] was 32.8 µM. The GI50 [25] was 1.61 µM, the TGI [25] was 6.33 µM and the GI50 [26] was 0.652 µM. For the same compound, the TGI [26] was 2.78 µM, the GI50 [27] was 10.3 µM and the TGI [27] was 33.3 µM. It also gave a GI50 [28] of 16.5 µM, a TGI [28] of 43.5 µM and a GI50 [29] of 2.04 µM. The TGI [29] was 22.1 µM.
